Structures are written as SMILES. Where two headings read alike, the source gives them in different places.

From patent US9523100B2, “Pesticidal compositions and related methods” (DOW AGROSCIENCES LLC, priority 2013, dated 2016) come the findings set out here.

The test system of assay [1] is Green Peach Aphid (GPA) (Myzus persicae) (MYZUPE). Nature of the assay: Bioassay for Green Peach Aphid (GPA), foliar spray on cabbage seedlings. Type of assay: in vivo. The conditions noted are these: 72 h, read-out: GPA 200 ppm, % Control (or Mortality) rating. From the text:
Bioassay for Green Peach Aphid (GPA) (Myzus persicae) (MYZUPE)
The green peach aphid (Myzus persicae) is the most significant aphid pest of peach trees, causing decreased growth, shriveling of the leaves, and the death of various tissues. It is also hazardous because it acts as a vector for the transport of plant viruses, such as potato virus Y and potato leafroll virus to members of the nightshade/potato family Solanaceae, and various mosaic viruses to many other food crops. GPA attacks such plants as broccoli, burdock, cabbage, carrot, cauliflower, daikon, eggplant, green beans, lettuce, macadamia, papaya, peppers, sweet potatoes, tomatoes, watercress, and zucchini, among other plants GPA also attacks many ornamental crops such as carnation, chrysanthemum, flowering white cabbage, poinsettia, and roses. GPA has developed resistance to many pesticides.
Cabbage seedlings grown in 3-inch pots, with 2-3 small (3-5 cm) true leaves, were used as test substrate. The seedlings were infested with 20-50 GPA (wingless adult and nymph stages) one day prior to chemical application. Four pots with individual seedlings were used for each treatment. Test compounds (2 mg) were dissolved in 2 mL of acetone/methanol (1:1) solvent, forming stock solutions of 1000 ppm test compound. The stock solutions were diluted 5× with 0.025% Tween 20 in water to obtain the solution at 200 ppm test compound. A hand-held aspirator-type sprayer was used for spraying a solution to both sides of […] leaves until runoff. Reference plants (solvent check) were sprayed with the diluent only containing 20% by volume of acetone/methanol (1:1) solvent. Treated plants were held in a holding room for three days at approximately 25° C. and ambient relative humidity (RH) prior to grading. Evaluation was conducted by counting the number of live aphids per plant under a microscope. Percent control was measured by using Abbott's correction formula (W. S. Abbott, “A Method of Computing the Effectiveness of an Insecticide” J. Econ. Entomol. 18 (1925), pp. 265-267) as follows. Corrected % Control=100*(X−Y)/X
X=No. of live aphids on solvent check plants and
Y=No. of live aphids on treated plants
Biological Data for Green Peach Aphid (GPA) (MYZUPE) and Sweetpotato Whitefly-Crawler (WF) (BEMITA)” (see table section).
(§1) The mortality efficiency of the pesticidal compounds against GPA and WF insects was determined after treatment.

In assay [2] the test system is Sweetpotato Whitefly-Crawler (WF) (Bemisia tabaci) (BEMITA). Nature of the assay: Insecticidal test for Sweetpotato Whitefly-Crawler (WF) in foliar spray assay on cotton plants. The format is in vivo. The settings on record: 216 h, read-out: WF 200 ppm, % Control (or Mortality) rating.
Source text: Insecticidal Test for Sweetpotato Whitefly-Crawler (WF) (Bemisia tabaci) (BEMITA) in Foliar Spray Assay
The sweetpotato whitefly (Bemisia tabaci) has been reported as a serious pest of cultivated crops world-wide. It has an extremely wide host range attacking more than 500 species of plants from 63 plant families. Weeds often serve as alternate hosts of crop pests. Direct feeding damage is caused by the piercing and sucking sap from the foliage of plants. This feeding causes weakening and early wilting of the plant and reduces the plant growth rate and yield Indirect damage results by the accumulation of honeydew produced by the whiteflies. Honeydew serves as a substrate for the growth of black sooty mold on leaves and fruit reducing photosynthesis and lessens the market value of the plant or yield. […] The sweetpotato whitefly is considered the most common and important whitefly vector of plant viruses worldwide.
Cotton plants (Gossypium hirsutum) grown in 3-inch pots, with 1 small (4-5 cm) true leaves, were used as test substrate. The plants were infested with 200-400 whitefly eggs 4-5 days prior to chemical application. Four pots with individual plants were used for each treatment. Test compounds (2 mg) were dissolved in 1 mL of acetone solvent, forming stock solutions of 2000 ppm test compound. The stock solutions were diluted 10× with 0.025% Tween 20 in water (diluents) to obtain the solution at 200 ppm test compound. A hand-held aspirator-type sprayer was used for spraying a solution to both sides of cotton leaves until runoff. Reference plants (solvent check) were sprayed with the diluent only containing 10% by volume of acetone solvent. Treated plants were held in a holding room for 9 days at approximately 25° C. and ambient relative humidity (RH) prior to grading. Evaluation was conducted by counting the number of live 3-4 nymph stage per plant under a microscope. Percent control was measured by using Abbott's correction formula (W. S. Abbott, “A Method of Computing the Effectiveness of an Insecticide” J. Econ. Entomol. 18 (1925), pp. 265-267) as follows.
Biological Data for Green Peach Aphid (GPA) (MYZUPE) and Sweetpotato Whitefly-Crawler (WF) (BEMITA)” (see table section). Corrected % Control=100*(X−Y)/X
X=No. of live nymphs on solvent check plants and
Y=No. of live nymphs on treated plants
as §1

The mark [3] stands for this setting: 200 ppm foliar spray on cabbage seedlings, graded after three days, Abbott corrected % control.
Setting [4] is: 200 ppm foliar spray on cotton plants, graded after 9 days, Abbott corrected % control.

As a reminder, the mortality is the share of the test organisms that died. Take `C#CCN(C(=O)CN(C)C(=O)OC(C)(C)C)c1cn(-c2cccnc2)nc1Cl` [Compound F23, tert-Butyl (2-((3-chloro-1-(pyridin-3-yl)-1H-pyrazol-4-yl)(prop-2-yn-1-yl)amino)-2-oxoethyl)(methyl) carbamate]: the results for the mortality at 200 ppm in assay [1] (foliar) and in assay [2] (foliar) were 0 to 80% and 80 to 100%, respectively.
As for `CCN1CC(CC(=O)N(CC)c2cn(-c3cccnc3)nc2Cl)C1=O` (stereo not drawn) [Compound F84, N-(3-Chloro-1-(pyridin-3-yl)-1H-pyrazol-4-yl)-N-ethyl-2-(1-ethyl-2-oxoazetidin-3-yl)acetamide], the mortality at 200 ppm in assay [1] (setting [3]) and in assay [2] (setting [4]) was 80 to 100% throughout.
Turning to `CCN(C(=O)C(C)N(C)C(=O)N(C)C)c1cn(-c2cccnc2)nc1Cl` (stereo not drawn) [Compound F114, N-(3-Chloro-1-(pyridin-3-yl)-1H-pyrazol-4-yl)-N-ethyl-2-(1,3,3-trimethylureido)propanamide], the mortality at 200 ppm in assay [1] (setting [3]) and in assay [2] (setting [4]) was 80 to 100% each time.
`CCN(C(=O)CC1CCN(CC(F)(F)F)C1=O)c1cn(-c2cccnc2)nc1Cl` (stereo not drawn) [FA65, N-(3-Chloro-1-(pyridin-3-yl)-1H-pyrazol-4-yl)-N-ethyl-2-(2-oxo-1-(2,2,2-trifluoroethyl)pyrrolidin-3-yl)acetamide]: the mortality at 200 ppm in assay [1] (setting [3]) and in assay [2] (setting [4]) was 80 to 100% each time.
As to `CCN(C(=O)C1CN(C(=O)CCC(F)(F)F)C1)c1cn(-c2cccnc2)nc1Cl` [FA15, N-(3-Chloro-1-(pyridin-3-yl)-1H-pyrazol-4-yl)-N-ethyl-1-(4,4,4-trifluorobutanoyl)azetidine-3-carboxamide], the mortality at 200 ppm in assay [1] (setting [3]) and in assay [2] (setting [4]) was 80 to 100% in each case.
Turning to `CN(C(=O)CCN1CCCC1=O)c1cn(-c2cccnc2)nc1Cl` [Compound F107, N-(3-Chloro-1-(pyridin-3-yl)-1H-pyrazol-4-yl)-N-methyl-3-(2-oxopyrrolidin-1-yl)propanamide], the mortality at 200 ppm in assay [1] (setting [3]) and in assay [2] (setting [4]) was 80 to 100% each time.
Consider `CCN(C(=O)C1CCN(C(=O)OC(C)(C)C)C1)c1cn(-c2cccnc2)nc1Cl` (stereo not drawn) [Compound F11], for which the values for the mortality at 200 ppm in assay [1] (setting [3]) and in assay [2] (setting [4]) were 0 to 80% and 80 to 100%, respectively.
On the same counts, the results for `CCN(C(=O)CNC(=O)OC(C)(C)C)c1cn(-c2cccnc2)nc1Cl` [Compound F2, tert-Butyl (2-((3-chloro-1-(pyridin-3-yl)-1H-pyrazol-4-yl)(ethyl)amino)-2-oxoethyl)carbamate] are 80 to 100% and 80 to 100%.
On the same counts, the results for `CCN(C(=O)CCNC(=O)CC(C)C(F)(F)F)c1cn(-c2cccnc2)nc1Cl` (stereo not drawn) [Compound F28, N-(3-((3-Chloro-1-(pyridin-3-yl)-1H-pyrazol-4-yl)(ethyl)amino)-3-oxopropyl)-4,4,4-trifluoro-3-methylbutanamide] are 80 to 100% and 80 to 100%.
On the same counts, the results for `CCN(C(=O)CN1CCCCCC1=O)c1cn(-c2cccnc2)nc1Cl` [Compound F123, N-(3-Chloro-1-(pyridin-3-yl)-1H-pyrazol-4-yl)-N-ethyl-2-(2-oxoazepan-1-yl)acetamide] are 0 to 80% and 80 to 100%.
Regarding `CCN(C(=O)C1CCN(C(=O)CC(F)(F)F)CC1)c1cn(-c2cccnc2)nc1Cl` [Compound P16, N-(3-chloro-1-(pyridin-3-yl)-1H-pyrazol-4-yl)-N-ethyl-1-(3,3,3-trifluoropropanoyl) piperidine-4-carboxamide], the values for the mortality at 200 ppm in assay [1] (setting [3]) and in assay [2] (setting [4]) were 80 to 100% and 0 to 80%, respectively.
In the same order, the values of `CN(C(=O)CN1CCCCCC1=O)c1cn(-c2cccnc2)nc1Cl` [Compound F22, N-(3-Chloro-1-(pyridin-3-yl)-1H-pyrazol-4-yl)-N-methyl-2-(2-oxoazepan-1-yl)acetamide] are 0 to 80% and 80 to 100%.
In the same order, the values of `CCN(C(=O)CCN(CC(F)F)C(=O)CC1CC1)c1cn(-c2cccnc2)nc1Cl` [Compound F125, N-(3-Chloro-1-(pyridin-3-yl)-1H-pyrazol-4-yl)-3-(2-cyclopropyl-N-(2,2-difluoroethyl)acetamido)-N-ethylpropanamide] are 80 to 100% and 80 to 100%.
In the same order, the values of `CCN(C(=O)CC/C(C)=N/OCCCCC(F)(F)F)c1cn(-c2cccnc2)nc1Cl` [FA4, (E/Z)-N-(3-Chloro-1-(pyridin-3-yl)-1H-pyrazol-4-yl)-N-ethyl-4-(((5,5,5-trifluoropentyl)oxy)imino)pentanamide] are 0 to 80% and 80 to 100%.
Turning to `CCN(C(=O)CCN(C)C(=O)CCC(F)(F)F)c1cn(-c2cccnc2)nc1Cl` [Compound F94, N-(3-((3-Chloro-1-(pyridin-3-yl)-1H-pyrazol-4-yl)(ethyl)amino)-3-oxopropyl)-4,4,4-trifluoro-N-methylbutanamide], the mortality at 200 ppm in assay [1] (setting [3]) and in assay [2] (setting [4]) was 80 to 100% each time.
In the case of `CCN(C(=O)CCC(=O)NCc1ccc(C)o1)c1cn(-c2cccnc2)nc1Cl` [Compound F13, N1-(3-Chloro-1-(pyridin-3-yl)-1H-pyrazol-4-yl)-N1-ethyl-N4-((5-methylfuran-2-yl)methyl)succinamide], the mortality at 200 ppm fell in the range of 0 to 80% in assay [1] (setting [3]) and 80 to 100% in assay [2] (setting [4]).
In the same order, the values of `CCN1CC(CCC(=O)N(CC)c2cn(-c3cccnc3)nc2Cl)C1=O` (stereo not drawn) [Compound F103, N-(3-Chloro-1-(pyridin-3-yl)-1H-pyrazol-4-yl)-N-ethyl-3-(1-ethyl-2-oxoazetidin-3-yl)propanamide] are 80 to 100% and 80 to 100%.
In the same order, the values of `CCN(C(=O)CC1CN(Cc2ccc(C(F)(F)F)nc2)C1=O)c1cn(-c2cccnc2)nc1Cl` (stereo not drawn) [Compound F117] are 80 to 100% and 80 to 100%.
On the same counts, the results for `CN(C(=O)Cn1ccccc1=O)c1cn(-c2cccnc2)nc1Cl` [Compound F3, N-(3-Chloro-1-(pyridin-3-yl)-1H-pyrazol-4-yl)-N-methyl-2-(2-oxopyridin-1(2H)-yl)acetamide] are 80 to 100% and 80 to 100%.
As to `CCN(C(=O)CCC(=O)N1CCCCC1)c1cn(-c2cccnc2)nc1Cl` [Compound F21, N-(3-Chloro-1-(pyridin-3-yl)-1H-pyrazol-4-yl)-N-ethyl-4-oxo-4-(piperidin-1-yl)butanamide], the mortality at 200 ppm in assay [1] (setting [3]) lay within 0 to 80%; in assay [2] (setting [4]), 80 to 100%.
On the same counts, the results for `CCN(C(=O)CN(C)C(=O)CCC(F)(F)F)c1cn(-c2cccnc2)nc1Cl` [Compound F5, N-(2-((3-Chloro-1-(pyridin-3-yl)-1H-pyrazol-4-yl)(ethyl)amino)-2-oxoethyl)-4,4,4-trifluoro-N-methylbutanamide] are 80 to 100% and 80 to 100%.
